# From patent US20230338541A1, “USE OF HIGH MOLECULAR WEIGHT HYALURONIC ACID AS OCULAR TRANSPORTING VEHICLE” (I.COM MEDICAL GMBH, priority 2020, published 2023)
# Assay: Pre-test: latanoprost dissolved in the 0.15% hylan A vehicle, HPLC
# Type: physicochemical
# Conditions: 0.15% w/v hylan A vehicle, stirred 18 hours at 40° C., 25 or 50 μg/ml added
# Experimental: Sterile bulk solution for the production of COMFORT SHIELD® MDS eye drops (i.com medical GmbH, Munich, Germany) was used as vehicle for the preparation of prototype latanoprost bulk solution (PLBS). The vehicle contained 0.15% w/v hylan A (HA with 2.9 m^3/kg intrinsic viscosity) dissolved in phosphate buffered saline solution (8.035 g/l NaCl; 1.2 mmol/1 Na2HPO4/NaH2PO4; pH 7.4). Latanoprost was obtained from Yonsung Fine Chemicals Co. Ltd., Gyeonggi-do, Republic of Korea. PLBS was prepared by medi-pharm Laboratorium GmbH, Falkensee, Germany by dissolving 20±1 μg/ml latanoprost in the vehicle.
# In a pre-test 25 μg/ml and 50 μg/ml latanoprost were added to the vehicle and the solution stirred for 18 hours at 40° C. The latanoprost content was determined by HPLC using a Hypersil BDS C18 5 μg, 150.0×4.0 mm column (VDS optilab) and a UV detector (200 nm).
smiles,measurement,value
"CC(C)OC(=O)CCC/C=C\C[C@@H]1[C@@H](CC[C@@H](O)CCc2ccccc2)[C@H](O)C[C@@H]1O [latanoprost, Latanoprost]",latanoprost found to be dissolved in the vehicle,20.8 µg/mL
